Key:
[1] = tested on: Viola arvensis (field violet, VIOAR); experiment: Greenhouse postemergence trial VIOAR; type: in vivo; conditions: VIOAR
Description: (§1) Seeds of the desired test plant species were planted in a 90:10% v/v (volume/volume) mixture of PRO-MIX® BX (Premier Tech Horticulture, Quakertown, PA, USA) and PROFILE® GREENS GRADE™ (Profile Products LLC, Buffalo Grove, IL, USA) planting mixture, which typically has a pH of 5.2 to 6.2 and an organic matter content of at least 50 percent, in plastic pots with a surface area of 103.2 square centimeters (cm^2). […] The plants were grown for 7-36 days (d) in a greenhouse with an approximate 14-hour (h) photo-period which was maintained at about 23° C. during the day and 22° C. during the night. Nutrients and water were added on a regular basis and supplemental lighting was provided with overhead metal halide 1000-Watt lamps as necessary. The plants were employed for testing when they reached the second or third true leaf stage.
(§2) Emulsifiable concentrates of each of each pyridine carboxylate herbicide (Compound A or Compound B) were prepared at 100 grams acid equivalent per liter (g ae/L). The emulsifiable concentrates also included a safener, cloquintocet-mexyl, at 120 grams active ingredient per liter (g ai/L), unless otherwise noted below. An aliquot of each emulsifiable concentrate was placed in a 25 mL glass vial and diluted with an aqueous mixture of 1.25% (v/v) ACTIROB® B esterified rapeseed oil (Bayer Crop Science, Research Triangle Park, NC, USA) or MSO® Concentrate with LECI-TECH® methylated soybean oil (Loveland Products, Loveland, CO, USA) to obtain concentrated stock solutions at the highest application rate for each herbicide, based upon a 12 milliliter (mL) application volume at a rate of 187 liters per hectare (L/ha). The concentrated stock solutions were further diluted with an aqueous mixture of 1.25% v/v ACTIROB® B or MSO® Concentrate with LECI-TECH® to obtain stock solutions at reduced application rates for each herbicide. Spray solutions of the herbicide combinations (Compound A or Compound B plus synthetic auxin herbicide or auxin transport inhibitor) were prepared by adding weighed amounts or aliquots of the synthetic auxin herbicide or auxin transport inhibitor to the stock solutions of Compound A or Compound B to form 12-mL spray solutions in two-way combinations.
(§3) The spray solutions were applied to the plant material with an overhead Mandel track sprayer equipped with 8002E nozzles calibrated to deliver 187 L/ha over an application area of 0.503 square meters (m^2) at a spray height of 18 inches (43 centimeters (cm)) above the average plant canopy. Control plants were sprayed in the same manner with the solvent blank. All pyridine carboxylate herbicide (component a) application rates are given as “g ae/ha” and all synthetic auxin herbicide or auxin transport inhibitor (component b) application rates are given as “g ai/ha.”
(§4) The treated plants and control plants were placed in a greenhouse as described above and watered by sub-irrigation to prevent wash-off of the test compounds. After 20-22 d, the condition of the test plants as compared with that of the control plants was determined visually and scored on a scale of 0 to 100 percent where 0 corresponds to no injury and 100 corresponds to complete kill.

[2] = tested on: Matricaria discoidea (pineapple weed, MATMT); experiment: Greenhouse postemergence trial MATMT; type: in vivo
[3] = tested on: Amaranthus retroflexus (pigweed, AMARE); experiment: Greenhouse postemergence trial AMARE; type: in vivo;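 note: Greenhouse-grown plants sprayed at second to third true leaf stage, injury rated by eye after 20-22 d versus solvent-blank sprayed controls, 0 = no injury, 100 = complete kill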
Description: (§5) The plants were grown for 7-36 days (d) in a greenhouse with an approximate 14-hour (h) photo-period which was maintained at about 23° C. during the day and 22° C. during the night. Nutrients and water were added on a regular basis and supplemental lighting was provided with overhead metal halide 1000-Watt lamps as necessary. The plants were employed for testing when they reached the second or third true leaf stage.
(§6) The emulsifiable concentrates also included a safener, cloquintocet-mexyl, at 120 grams active ingredient per liter (g ai/L), unless otherwise noted below.
(§7) Control plants were sprayed in the same manner with the solvent blank. All pyridine carboxylate herbicide (component a) application rates are given as “g ae/ha” and all synthetic auxin herbicide or auxin transport inhibitor (component b) application rates are given as “g ai/ha.”
as §4

[4] = tested on: Salsola kali (Russian thistle, SASKR); experiment: Greenhouse postemergence trial SASKR; type: in vivo; conditions: SASKR;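 note: greenhouse plants sprayed at second or third true leaf stage, injury rated by eye after 20-22 d against solvent-blank controls, 0 meaning no injury, 100 complete kill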
[5] = tested on: Chenopodium album L. (common lambsquarters, CHEAL); experiment: Greenhouse postemergence trial CHEAL; type: in vivo; conditions: c1-2 Compound A 7.5/10; c3 Dicamba 140; c4-5 A 7.5/10 + Dicamba 140 g/ha;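 note: greenhouse plants sprayed at second to third true leaf stage, injury rated by eye after 20-22 d versus solvent-blank sprayed controls, 0 = no injury, 100 = complete kill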
[6] = tested on: Veronica persica (bird's-eye speedwell, VERPE); experiment: Greenhouse postemergence trial VERPE; type: in vivo
[7] = tested on: Papaver rhoeas (corn poppy, PAPRH); experiment: Greenhouse postemergence trial PAPRH; type: in vivo; conditions: PAPRH
[8] = tested on: Veronica hederifolia (ivyleaf speedwell, VERHE); experiment: Greenhouse postemergence trial VERHE; type: in vivo; conditions: VERHE
[9] = tested on: Capsella bursa-pastoris (shepherd's purse, CAPBP); experiment: Greenhouse postemergence trial CAPBP; type: in vivo; conditions: CAPBP
[10] = tested on: Lamium purpureum (purple deadnettle, LAMPU); experiment: Greenhouse postemergence trial LAMPU
[11] = tested on: Viola tricolor (wild pansy, VIOTR); experiment: Greenhouse postemergence trial VIOTR;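 note: greenhouse plants sprayed at second to third true leaf stage, injury rated visually after 20-22 d against solvent-blank sprayed controls, 0 meaning no injury and 100 complete kill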
[12] = tested on: Cyanus segetum (cornflower, CENCY); experiment: Greenhouse postemergence trial CENCY; type: in vivo; conditions: CENCY
Description: as §1, §2, §3, §4

[13] = tested on: Stellaria media (chickweed, STEME); experiment: Greenhouse postemergence trial STEME; type: in vivo; conditions: STEME
[14] = tested on: Papaver rhoeas (corn poppy), herbicide-resistant (PAPRH-R); experiment: Greenhouse postemergence trial PAPRH-R; type: in vivo
[15] = tested on: Matricaria chamomilla (wild chamomile, MATCH); experiment: Greenhouse postemergence trial MATCH; type: in vivo; conditions: MATCH; for % visual injury, Obs: applied alone;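 for all read-outs here: greenhouse plants sprayed at second to third true leaf stage, injury rated by eye 20-22 d later versus solvent-blank controls on 0–100 scale, 0 no injury, 100 complete kill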
[16] = tested on: Matricaria inodora (false chamomile, MATIN); experiment: Greenhouse postemergence trial MATIN; type: in vivo; conditions: MATIN
Description: as §1, §2, §3, §4

[17] = tested on: Cirsium arvense (Canadian thistle, CIRAR); experiment: Greenhouse postemergence trial CIRAR; type: in vivo; conditions: CIRAR
[18] = tested on: Polygonum convolvulus (wild buckwheat, POLCO); experiment: Greenhouse postemergence trial POLCO; type: in vivo; conditions: POLCO
Description: as §1, §2, §3, §4

[19] = tested on: Sinapis arvensis (wild mustard, SINAR); experiment: Greenhouse postemergence trial SINAR; type: in vivo; conditions: SINAR
Description: as §5, §6, §7, §4

[20] = tested on: Brassica napus (winter rape, BRSNW); experiment: Greenhouse postemergence trial BRSNW; type: in vivo; conditions: BRSNW
Description: as §1, §2, §3, §4

[21] = tested on: Anthemis arvensis (field chamomile, ANTAR); experiment: Greenhouse postemergence trial ANTAR; type: in vivo; conditions: ANTAR
Description: as §1, §2, §3, §4

[22] = tested on: Kochia scoparia (kochia, KCHSC); experiment: Greenhouse postemergence trial KCHSC; type: in vivo; conditions: KCHSC
[23] = partner herbicide 560 g/ha alone

COc1c(Cl)ccc(Cl)c1C(=O)O [Dicamba, dicamba, reference compound]
visual injury, Obs [1, 23]: 30% | visual injury, Obs ([2]; MATMT, partner herbicide 560 g/ha alone): 25% | % visual injury, Obs ([3]; AMARE, applied alone, 140 g/ha): 60% | % visual injury ([3]; c1-2 Compound A 7.5/10, c3 Dicamba 140, c4-5 A 7.5/10 + Dicamba 140 g/ha): 50% | visual injury, Obs [4, 23]: 65% | % visual injury [5]: 48% | visual injury, Obs ([6]; VERPE, partner herbicide 560 g/ha alone): 60% | visual injury, Obs [7, 23]: 30% | visual injury, Obs [8, 23]: 75% | visual injury, Obs [9, 23]: 60% | visual injury, Obs ([10]; LAMPU, partner herbicide 560 g/ha alone): 20% | visual injury, Obs ([11]; VIOTR, partner herbicide 560 g/ha alone): 20% | visual injury, Obs [12, 23]: 100% | visual injury, Obs [13, 23]: 75% | visual injury, Obs ([14]; PAPRH-R, partner herbicide 560 g/ha alone): 30% | % visual injury, Obs ([15]; 140 g/ha): 3% | visual injury, Obs [15, 23]: 35% | visual injury, Obs [16, 23]: 70% | visual injury, Obs [17, 23]: 70% | visual injury, Obs [18, 23]: 100% | visual injury, Obs [19, 23]: 85% | visual injury, Obs [20, 23]: 70% | plant injury at 140 g/ha ([20]; Brassica napus, post-emergence, applied alone, 140 g/ha, read-out: % visual injury, Obs): 23% | visual injury, Obs [21, 23]: 100% | visual injury, Obs [22, 23]: 80%

CC(Oc1ccc(Cl)cc1Cl)C(=O)O (stereo not drawn) [Dichlorprop]
% visual injury, Obs ([1]; applied alone, 560 g/ha): 25% | % visual injury, Obs ([2]; MATMT, applied alone, 560 g/ha): 10% | % visual injury, Obs ([4]; applied alone, 560 g/ha): 70% | % visual injury, Obs ([6]; VERPE, applied alone, 560 g/ha): 30% | % visual injury, Obs ([7]; applied alone, 560 g/ha): 65% | % visual injury, Obs ([8]; applied alone, 560 g/ha): 60% | % visual injury, Obs ([9]; applied alone, 560 g/ha): 70% | % visual injury, Obs ([10]; LAMPU, applied alone, 560 g/ha): 30% | % visual injury, Obs ([11]; VIOTR, applied alone, 560 g/ha): 85% | % visual injury, Obs ([12]; applied alone, 560 g/ha): 100% | % visual injury, Obs ([13]; applied alone, 560 g/ha): 30% | % visual injury, Obs ([14]; PAPRH-R, applied alone, 560 g/ha): 30% | % visual injury, Obs ([15]; 560 g/ha): 50% | % visual injury, Obs ([16]; applied alone, 560 g/ha): 60% | % visual injury, Obs ([17]; applied alone, 560 g/ha): 75% | % visual injury, Obs ([18]; applied alone, 560 g/ha): 95% | % visual injury, Obs ([19]; applied alone, 560 g/ha): 100% | plant injury at 560 g/ha ([20]; Brassica napus, post-emergence, applied alone, 560 g/ha, read-out: % visual injury, Obs): 75% | % visual injury, Obs ([21]; applied alone, 560 g/ha): 95% | % visual injury, Obs ([22]; applied alone, 560 g/ha): 75%

Nc1c(Cl)c(F)nc(OCC(=O)O)c1Cl [Fluroxypyr]
pest or weed control ([1]; Viola arvensis, post-emergence, Fluroxypyr 200 g/ha, read-out: % visual injury Obs): 10% | MATMT % visual injury Obs ([2]; Fluroxypyr 70 g/ha (Table 38)): 10% | MATMT % visual injury Obs ([2]; Fluroxypyr 100 g/ha (Table 38)): 10% | pest or weed control ([2]; Matricaria discoidea, post-emergence, MATMT, Fluroxypyr 200 g/ha, read-out: % visual injury Obs): 0% | pest or weed control ([4]; Salsola kali, post-emergence, Fluroxypyr 200 g/ha, read-out: % visual injury Obs): 60% | pest or weed control ([6]; Veronica persica, post-emergence, VERVE, Fluroxypyr 200 g/ha, read-out: % visual injury Obs): 60% | pest or weed control ([7]; Papaver rhoeas, post-emergence, Fluroxypyr 200 g/ha, read-out: % visual injury Obs): 0% | pest or weed control ([8]; Veronica hederifolia, post-emergence, Fluroxypyr 200 g/ha, read-out: % visual injury Obs): 10% | pest or weed control ([9]; Capsella bursa-pastoris, post-emergence, Fluroxypyr 200 g/ha, read-out: % visual injury Obs): 10% | pest or weed control at 200 g/ha ([10]; Lamium purpureum, post-emergence, read-out: % visual injury Obs): 65% | pest or weed control at 200 g/ha ([11]; Viola tricolor, post-emergence, read-out: % visual injury Obs): 65% | pest or weed control ([12]; Centaurea cyanus, post-emergence, Fluroxypyr 200 g/ha, read-out: % visual injury Obs): 100% | pest or weed control ([13]; Stellaria media, post-emergence, Fluroxypyr 200 g/ha, read-out: % visual injury Obs): 95% | PAPRH-R % visual injury Obs ([14]; Fluroxypyr 70 g/ha (Table 38)): 25% | PAPRH-R % visual injury Obs ([14]; Fluroxypyr 100 g/ha (Table 38)): 25% | pest or weed control ([14]; Papaver rhoeas, post-emergence, PAPRH-R, Fluroxypyr 200 g/ha, read-out: % visual injury Obs): 10% | pest or weed control ([15]; Matricaria chamomilla, post-emergence, Fluroxypyr 200 g/ha, read-out: % visual injury Obs): 10% | pest or weed control ([16]; Tripleurospermum inodorum, post-emergence, Fluroxypyr 200 g/ha, read-out: % visual injury Obs): 65% | pest or weed control ([17]; Cirsium arvense, post-emergence, Fluroxypyr 200 g/ha, read-out: % visual injury Obs): 10% | pest or weed control ([18]; Fallopia convolvulus, post-emergence, Fluroxypyr 200 g/ha, read-out: % visual injury Obs): 50% | pest or weed control ([19]; Mutarda arvensis, post-emergence, Fluroxypyr 200 g/ha, read-out: % visual injury Obs): 90% | plant injury ([20]; Brassica napus, post-emergence, Fluroxypyr 200 g/ha, read-out: % visual injury Obs): 30% | pest or weed control ([21]; Anthemis arvensis, post-emergence, Fluroxypyr 200 g/ha, read-out: % visual injury Obs): 60% | pest or weed control ([22]; Bassia scoparia, post-emergence, Fluroxypyr 200 g/ha, read-out: % visual injury Obs): 70%

Reference: US12568967B2, “Compositions comprising pyridine carboxylate herbicides with synthetic auxin herbicides or auxin transport inhibitors” (priority 2018, dated 2026)
